Assay results: the supplement of paper PMC11061612

Experiments:
Assay in all cases: Bliss excess, mean over the matrix (fraction); higher = more synergy
[1] = test system: SCC-15 (Oral Cavity Carcinoma)
Method in brief: (§1)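 Cell lines grown in DMEM/F12 or RPMI with 10% FBS were plated in 1536-well plates and held 24 hours at 37°C, 5% CO2 before 72 hours of exposure to two-drug dose matrices, with DMSO typically at 0.2%. CellTiter-Glo 2.0 luminescence gave viability, which was converted to inhibition. Vehicle wells were set to 0 and blank wells to 1. Combination Emax is the second-highest inhibition in the matrix, and Bliss excess is the observed combination effect minus the expected EA + EB − EA·EB, where EA and EB are the single-agent effects.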

[2] = test system: SU8686 (Pancreatic Carcinoma)
Method in brief: as §1

[3] = test system: NEC8 (Other Solid Carcinomas)
Method in brief: as §1

[4] = test system: HGC-27 (Gastric Carcinoma)
Method in brief: as §1

PWR-1E (Non-Cancerous) = test system: PWR-1E (Non-Cancerous)
Method in brief: as §1

[5] = test system: LU-65 (Non-Small Cell Lung Carcinoma)
Method in brief: as §1

[6] = test system: RF-48 (B-Cell Non-Hodgkin's Lymphoma)
Method in brief: as §1

[7] = test system: BT-549 (Breast Carcinoma)
Method in brief: as §1

[8] = test system: OE19 (Esophageal Adenocarcinoma)
Method in brief: as §1

[9] = test system: KMOE-2 (Acute Myeloid Leukemia)
Method in brief: as §1

[10] = test system: HSC-4 (Oral Cavity Carcinoma)
Method in brief: as §1

ACHN (Kidney Carcinoma) = test system: ACHN (Kidney Carcinoma)
Method in brief: as §1

[11] = test system: AMO-1 (Plasma Cell Myeloma)
Method in brief: as §1

[12] = test system: NUGC-3 (Gastric Carcinoma)
Method in brief: as §1

[13] = test system: OVCAR-4 (Ovarian Carcinoma)
Method in brief: as §1

[14] = test system: NCI-H358 (Lung Adenocarcinoma)
Method in brief: as §1

UACC-62 (Melanoma) = test system: UACC-62 (Melanoma)
Method in brief: as §1

[15] = test system: PANC-04-03 (Pancreatic Carcinoma)
Method in brief: as §1

[16] = test system: SW13 (Other Solid Carcinomas)
Method in brief: as §1

[17] = test system: KARPAS-299 (T-Cell Non-Hodgkin's Lymphoma)
Method in brief: as §1

SMILES | Bliss excess [1] | Bliss excess [2] | Bliss excess [3] | Bliss excess [4] | Bliss excess (PWR-1E (Non-Cancerous)) | Bliss excess [5] | Bliss excess [6] | Bliss excess [7] | Bliss excess [8] | Bliss excess [9] | Bliss excess [10] | Bliss excess (ACHN (Kidney Carcinoma)) | Bliss excess [11] | Bliss excess [12] | Bliss excess [13] | Bliss excess [14] | Bliss excess (UACC-62 (Melanoma)) | Bliss excess [15] | Bliss excess [16] | Bliss excess [17]
Cn1cnc2c(F)c(Nc3ccc(Br)cc3Cl)c(C(=O)NOCCO)cc21 [Selumetinib] + C[C@@H]1COCCN1C2=NC(=NC(=C2)C3(CC3)[S@](=N)(=O)C)C4=C5C=CNC5=NC=C4 [AZD6738] (first compound max 10 µM, 7x7, partner max 10 µM) | -0.0142 | -0.0168 | -0.0014 | -0.0513 | -0.0381 | -0.0244 | -0.0651 | -0.0936 | -0.049 | 0.0544 | 0.0345 | -0.0415 | -0.0261 | 0.0428 | 0.0169 | -0.0816 | 0.063 | 0.0023 | 0.0113 | -0.013
Cn1cnc2c(F)c(Nc3ccc(Br)cc3Cl)c(C(=O)NOCCO)cc21 [Selumetinib] + CC(C)n1c(=O)n(C)c2cnc3cc(F)c(-c4ccc(OCCCN5CCCCC5)nc4)cc3c21 [AZD1390] (first compound max 10 µM, 7x7, partner max 0.3 µM) | -0.0462 | -0.0255 | -0.0268 | -0.0129 | -0.0467 | 0.0027 | -0.056 | -0.0438 | -0.0326 | 0.0296 | -0.085 | 0.0389 | 0.0291 | -0.0347 | -0.0512 | -0.03 | -0.0092 | -0.0287 | 0.0129 | 0.0285
COc1nnc2ccc(N3CCC(c4ccc(OCCN5CCN(C)C(=O)[C@H]5C)cc4)CC3)nn12 [AZD5153] + Cc1c2c(nn1C)CSCc1cc(n(C)n1)CSc1cc(c3ccccc3c1)OCCCc1c(C(=O)O)n(C)c3c-2c(Cl)ccc13 [AZD5991] (first compound max 1 µM, 7x7, partner max 1 µM) | -0.0167 | -0.0221 | 0.0672 | -0.0471 | 0.0557 | -0.0445 | -0.0863 | 0.0452 | -0.0322 | -0.0322 | -0.101 | -0.0565 | -0.0514 | -0.0233 | -0.0152 | -0.059 | 0.0084 | -0.0038 | 0.0258 | -0.0277
Cc1c2c(nn1C)CSCc1cc(n(C)n1)CSc1cc(c3ccccc3c1)OCCCc1c(C(=O)O)n(C)c3c-2c(Cl)ccc13 [AZD5991] + C=CCn1c(=O)c2cnc(Nc3ccc(N4CCN(C)CC4)cc3)nc2n1-c1cccc(C(C)(C)O)n1 [AZD1775] (first compound max 1 µM, partner max 1 µM) | -0.0365 | 0.0175 | -0.0089 | -0.0061 | -0.0124 | -0.118 | 0.0064 | 0.024 | -0.0082 | 0.0087 | -0.0805 | -0.0085 | -0.0189 | -0.0088 | 0.0117 | -0.0047 | 0.0675 |  | 0.0002 | -0.0032
Cc1c2c(nn1C)CSCc1cc(n(C)n1)CSc1cc(c3ccccc3c1)OCCCc1c(C(=O)O)n(C)c3c-2c(Cl)ccc13 [AZD5991] + C[C@@H]1COCCN1C2=NC(=NC(=C2)C3(CC3)[S@](=N)(=O)C)C4=C5C=CNC5=NC=C4 [AZD6738] (first compound max 1 µM, 7x7, partner max 10 µM) | 0.0506 | -0.008 | 0.1 | 0.0562 | 0.005 | -0.0405 | -0.0062 | 0.0869 |  | 0.0168 | -0.0403 | -0.0008 | 0.0055 | 0.0119 | -0.0472 | -0.0334 | 0.0478 | 0.0027 | 0.0363 | 0.0002
CS(=O)(=O)CCNCc1ccc(-c2ccc3ncnc(Nc4ccc(OCc5cccc(F)c5)c(Cl)c4)c3c2)o1 [Lapatinib] + NC1(c2ccc(-c3nc4ccn5c(=O)[nH]nc5c4cc3-c3ccccc3)cc2)CCC1 [MK-2206] (first compound max 10 µM, 7x7, partner max 10 µM) |  |  |  | -0.0156 | 0.0309 | 0.0099 | 0.0003 | -0.0275 |  |  | 0.0003 | 0.0221 | -0.048 | 0.0527 |  | -0.0733 | 0.0426 | 0.0116 | -0.0229 | 0.0874
CCc1c2c(nc3ccc(O)cc13)-c1cc3c(c(=O)n1C2)COC(=O)[C@]3(O)CC [SN-38] + O=C(c1cc(Cc2n[nH]c(=O)c3ccccc23)ccc1F)N1CCN(C(=O)C2CC2)CC1 [Olaparib] (first compound max 0.3 µM, 7x7, partner max 10 µM) |  |  | 0.0473 | -0.0468 |  | 0.0282 | 0.0259 | 0.0589 | 0.0026 | 0.0555 |  | 0.0198 | 0.0023 |  | -0.0234 | 0.0029 | 0.0203 | 0.0215 | 0.0364 | 0.0404
